Experiment [1] has as its system U937 cells. The experiment in a line: U937 cell necroptosis assay (TNFa + zVAD, CellTiter-Glo recovery). The note with it: Homo sapiens, U-937, 18 h, TNFa 2 ng/mL + zVAD-fmk, read-out: U937 Zvad TNF CTG Recovery, U937, TNFa + zVAD (IC50). The format is cell-based. The gist of the method:
(§1)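 Human U937 (50K/well, 60 uM zVAD-fmk medium, plated same day) or murine L929 (10K/well, plated 18 h, then 40 uM zVAD-fmk medium) were grown in RPMI with 10% FBS. Both were pretreated with compound for 1 h at 37 °C before TNFa at 2 ng/mL final. Viability was read by CellTiter-Glo luminescence after 18 h.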

The target in experiment [2] is T1, RIPK1 (Homo sapiens, UniProt Q13546).
T1 sequence (Q13546 1-671): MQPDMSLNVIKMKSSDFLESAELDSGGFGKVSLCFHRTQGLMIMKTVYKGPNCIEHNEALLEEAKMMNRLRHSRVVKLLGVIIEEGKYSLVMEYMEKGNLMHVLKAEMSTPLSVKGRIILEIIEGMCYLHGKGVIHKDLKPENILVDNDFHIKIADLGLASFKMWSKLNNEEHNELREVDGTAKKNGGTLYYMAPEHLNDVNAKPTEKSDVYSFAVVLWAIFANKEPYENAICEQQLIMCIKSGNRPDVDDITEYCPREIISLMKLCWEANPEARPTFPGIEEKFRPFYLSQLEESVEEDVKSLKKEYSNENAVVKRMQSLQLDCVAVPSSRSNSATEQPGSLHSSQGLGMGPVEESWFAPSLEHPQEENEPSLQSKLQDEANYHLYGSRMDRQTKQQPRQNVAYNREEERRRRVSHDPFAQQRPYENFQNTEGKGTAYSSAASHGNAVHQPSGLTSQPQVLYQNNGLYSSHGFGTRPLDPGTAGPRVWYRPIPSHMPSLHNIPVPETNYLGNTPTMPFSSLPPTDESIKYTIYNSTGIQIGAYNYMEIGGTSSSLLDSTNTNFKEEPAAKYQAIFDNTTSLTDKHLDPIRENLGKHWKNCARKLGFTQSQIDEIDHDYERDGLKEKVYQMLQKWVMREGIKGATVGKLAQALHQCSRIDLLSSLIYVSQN
The experiment in a line: RIPK1 ADP-Glo biochemical kinase assay. The note with it: read-out: RIPK1 ADP-Glo Kinase (IC50). The procedure, abridged:
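RIPK1 at 31 ng/well in Tris pH 7.4 buffer with MgCl2, BSA, DTT and MnCl2, reacted with compounds (duplicate) for 30 min at 30 °C. ADP formed detected by ADP-Glo: 40 min stop/depletion, then 30 min detection reagent at room temperature; luminescence read.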

Experiment [3] has as its system L929 cells. The experiment in a line: L929 cell necroptosis assay (TNFa + zVAD, CellTiter-Glo recovery). It is filed as cell-based, murine. The note with it: Mus musculus, L929, 18 h, TNFa 2 ng/mL + zVAD-fmk, read-out: L929-CTG-recovery, L929, TNFa + zVAD (IC50). The procedure, abridged: as §1

Here are results for 18 molecules from patent US12156880B2, “Heterocyclic RIP1 kinase inhibitors” (Rigel Pharmaceuticals, Inc., priority 2021, dated 2024).

Each structure is given as a SMILES string.

For `Cc1cccc(Cc2cnn(C(=O)N[C@H]3CCc4ccc(Br)cc4N(C)C3=O)c2)n1` [I-118, (S)—N-(8-Bromo-1-methyl-2-oxo-2,3,4,5-tetrahydro-1H-benzo[b]azepin-3-yl)-4-((6-methylpyridin-2-yl)methyl)-1H-pyrazole-1-carboxamide], the results for the half-maximal inhibitory concentration (IC50) in experiment [1], in experiment [2] and in experiment [3] were 256 nM, 38.4 nM and 7670 nM, respectively.

Consider `CN1C(=O)[C@@H](NC(=O)c2cc(Oc3cccnc3C(F)(F)F)ccn2)COc2ccc(C#CC(C)(C)O)cc21` [I-87, (S)—N-(7-(3-hydroxy-3-methylbut-1-yn-1-yl)-5-methyl-4-oxo-2,3,4,5-tetrahydrobenzo[b][1,4]oxazepin-3-yl)-4-((2-(trifluoromethyl)pyridin-3-yl)oxy)picolinamide], for which the 50% inhibitory concentration (IC50) is 536 nM in experiment [1], 51.3 nM in experiment [2] and 11200 nM in experiment [3].

Take `CN1C(=O)[C@@H](NC(=O)c2cc(Oc3cccnc3)ccn2)COc2ccc(C#CC3CCOCC3)cc21` [I-63, (S)—N-(5-methyl-4-oxo-7-((tetrahydro-2H-pyran-4-yl)ethynyl)-2,3,4,5-tetrahydrobenzo[b][1,4]oxazepin-3-yl)-4-(pyridin-3-yloxy)picolinamide]: the concentration for half-maximal inhibition (IC50) was found to be 0.7 nM in experiment [1], 19.5 nM in experiment [2] and 60 nM in experiment [3].

`CN1C(=O)[C@@H](NC(=O)n2cc(Cc3cccc(F)n3)cn2)COc2ccc(C#CC3(O)COC3)cc21` [I-32, (S)-4-((6-Fluoropyridin-2-yl)methyl)-N-(7-((3-hydroxyoxetan-3-yl)ethynyl)-5-methyl-4-oxo-2,3,4,5-tetrahydrobenzo[b][1,4]oxazepin-3-yl)-1H-pyrazole-1-carboxamide]: the IC50 in experiment [1] stood at 16.3 nM; in experiment [2], 16.2 nM; in experiment [3], 682 nM.

For `CN1C(=O)[C@@H](NC(=O)c2cc(Cc3ccccn3)ccn2)COc2ccc(C#CC3(O)COC3)cc21` [I-64, (S)—N-(7-((3-hydroxyoxetan-3-yl)ethynyl)-5-methyl-4-oxo-2,3,4,5-tetrahydrobenzo[b][1,4]oxazepin-3-yl)-4-(pyridin-2-ylmethyl)picolinamide], the IC50 was 67.9 nM in experiment [1], 30.7 nM in experiment [2] and 767 nM in experiment [3].

As to `CN1C(=O)[C@@H](NC(=O)n2cc(Cc3cccc(F)n3)cn2)CCc2ccc(C#CC(C)(C)CO)cc21` [I-115, (S)-4-((6-fluoropyridin-2-yl)methyl)-N-(8-(4-hydroxy-3,3-dimethylbut-1-yn-1-yl)-1-methyl-2-oxo-2,3,4,5-tetrahydro-1H-benzo[b]azepin-3-yl)-1H-pyrazole-1-carboxamide], the IC50 came out at 0.5 nM in experiment [1], 28.3 nM in experiment [2] and 38.5 nM in experiment [3].

With `Cc1ccc(Oc2ccnc(C(=O)N[C@H]3COc4ccc(C#CC(C)(C)O)cc4N(C)C3=O)c2)cn1` [I-4, (S)—N-(7-(3-hydroxy-3-methylbut-1-yn-1-yl)-5-methyl-4-oxo-2,3,4,5-tetrahydrobenzo[b][1,4]oxazepin-3-yl)-4-((6-methylpyridin-3-yl)oxy)picolinamide], the results for the half-inhibitory concentration (IC50) in experiment [1], in experiment [2] and in experiment [3] were 361 nM, 55.3 nM and 7060 nM, respectively.

As for `Cc1ccc(Oc2ccnc(C(=O)N[C@H]3COc4ccc(C#CC5(O)COC5)cc4N(C)C3=O)c2)cn1` [I-3, (S)—N-(7-((3-hydroxyoxetan-3-yl)ethynyl)-5-methyl-4-oxo-2,3,4,5-tetrahydrobenzo[b][1,4]oxazepin-3-yl)-4-((6-methylpyridin-3-yl)oxy)picolinamide], the results for the IC50 in experiment [1], in experiment [2] and in experiment [3] were 152 nM, 28.9 nM and 3850 nM, respectively.

With `CN1C(=O)[C@@H](NC(=O)c2cc(Oc3cncc(F)c3)ccn2)COc2ccc(C#CC3(O)COC3)cc21` [I-59, (S)-4-((5-fluoropyridin-3-yl)oxy)-N-(7-((3-hydroxyoxetan-3-yl)ethynyl)-5-methyl-4-oxo-2,3,4,5-tetrahydrobenzo[b][1,4]oxazepin-3-yl)picolinamide], the IC50 in experiment [1] worked out at 3.5 nM; in experiment [2] it was 15.9 nM; in experiment [3], 382 nM.

`CN1C(=O)[C@@H](NC(=O)c2cc(Oc3cnn(C)c3)ccn2)COc2ccc(C#CC3(O)COC3)cc21` [I-127, (S)—N-(7-((3-hydroxyoxetan-3-yl)ethynyl)-5-methyl-4-oxo-2,3,4,5-tetrahydrobenzo[b][1,4]oxazepin-3-yl)-4-((1-methyl-1H-pyrazol-4-yl)oxy)picolinamide]: the 50% inhibitory concentration (IC50) in experiment [1] was 6.7 nM; in experiment [2] it was 15 nM; in experiment [3], 198 nM.

In the case of `Cc1nc(Cc2ccnc(C(=O)N[C@H]3COc4ccc(C#CC5(O)COC5)cc4N(C)C3=O)c2)cs1` [I-66, (S)—N-(7-((3-hydroxyoxetan-3-yl)ethynyl)-5-methyl-4-oxo-2,3,4,5-tetrahydrobenzo[b][1,4]oxazepin-3-yl)-4-((2-methylthiazol-4-yl)methyl)picolinamide], the values for the IC50 in experiment [1], in experiment [2] and in experiment [3] were 35.4 nM, 15.4 nM and 98 nM, respectively.

For the molecule `CN1C(=O)[C@@H](NC(=O)c2cc(Oc3cccnc3F)ccn2)COc2ccc(C#CC3CCOCC3)cc21` [I-125, (S)-4-((2-fluoropyridin-3-yl)oxy)-N-(5-methyl-4-oxo-7-((tetrahydro-2H-pyran-4-yl)ethynyl)-2,3,4,5-tetrahydrobenzo[b][1,4]oxazepin-3-yl)picolinamide], the concentration for half-maximal inhibition (IC50) in experiment [1] stood at 0.9 nM; in experiment [2] it was 23.4 nM; in experiment [3], 11.5 nM.

In the case of `Cc1ccc(Cc2cnn(C(=O)N[C@H]3COc4ccc(C#CC(C)(C)O)cc4N(C)C3=O)c2)cn1` [I-15, (S)—N-(7-(3-Hydroxy-3-methylbut-1-yn-1-yl)-5-methyl-4-oxo-2,3,4,5-tetrahydrobenzo[b][1,4]oxazepin-3-yl)-4-((6-methylpyridin-3-yl)methyl)-1H-pyrazole-1-carboxamide], the half-maximal inhibitory concentration (IC50) came to 27.5 nM in experiment [1], 19.4 nM in experiment [2] and 1680 nM in experiment [3].

For `Cc1ncccc1Oc1ccnc(C(=O)N[C@H]2COc3ccc(C#CC(C)(C)O)cc3N(C)C2=O)c1` [I-74, (S)—N-(7-(3-hydroxy-3-methylbut-1-yn-1-yl)-5-methyl-4-oxo-2,3,4,5-tetrahydrobenzo[b][1,4]oxazepin-3-yl)-4-((2-methylpyridin-3-yl)oxy)picolinamide], the IC50 in experiment [1] turned out to be 126 nM; in experiment [2] it was 35.9 nM; in experiment [3], 3520 nM.

Take `Cc1nc(Cc2ccnc(C(=O)N[C@H]3COc4ccc(C#CC(C)(C)C)cc4N(C)C3=O)c2)cs1` [I-96, (S)—N-(7-(3,3-dimethylbut-1-yn-1-yl)-5-methyl-4-oxo-2,3,4,5-tetrahydrobenzo[b][1,4]oxazepin-3-yl)-4-((2-methylthiazol-4-yl)methyl)picolinamide]: the IC50 worked out at 84.2 nM in experiment [1], 396 nM in experiment [2] and 242 nM in experiment [3].

On to `CN1C(=O)[C@@H](NC(=O)n2cc(Cc3cccc(F)n3)cn2)COc2ccc(C#CC(C)(C)C3CCOCC3)cc21` [I-107, (S)-4-((6-Fluoropyridin-2-yl)methyl)-N-(5-methyl-7-(3-methyl-3-(tetrahydro-2H-pyran-4-yl)but-1-yn-1-yl)-4-oxo-2,3,4,5-tetrahydrobenzo[b][1,4]oxazepin-3-yl)-1H-pyrazole-1-carboxamide], for which the IC50 in experiment [1] was found to be 2 nM; in experiment [2], 53.8 nM; in experiment [3], 307 nM.

Take `Cc1cccc(Cc2cnn(C(=O)N[C@H]3COc4ccc(C#CC(C)(C)O)cc4N(C)C3=O)c2)n1` [I-2, (S)—N-(7-(3-Hydroxy-3-methylbut-1-yn-1-yl)-5-methyl-4-oxo-2,3,4,5-tetrahydrobenzo[b][1,4]oxazepin-3-yl)-4-((6-methylpyridin-2-yl)methyl)-1H-pyrazole-1-carboxamide]: the half-maximal inhibitory concentration (IC50) in experiment [1] turned out to be 49.7 nM; in experiment [2], 42.2 nM; in experiment [3], 1800 nM.

Turning to `CN1C(=O)[C@@H](NC(=O)n2cc(Cc3cccc(C(F)(F)F)n3)cn2)COc2ccc(C#CC(C)(C)O)cc21` [I-9, (S)—N-(7-(3-Hydroxy-3-methylbut-1-yn-1-yl)-5-methyl-4-oxo-2,3,4,5-tetrahydrobenzo[b][1,4]oxazepin-3-yl)-4-((6-(trifluoromethyl)pyridin-2-yl)methyl)-1H-pyrazole-1-carboxamide], the IC50 in experiment [1] worked out at 163 nM; in experiment [2], 64.3 nM; in experiment [3], 2690 nM.
